The subject of this experiment is tubulin. Kind of experiment: Tubulin binding assay (Tubulin Assay), method of Parness et al. Conditions: compared to taxol and taxotere.
Consider `CC(=O)O[C@H]1C(=O)[C@@]2(C)[C@H]([C@H](OC(=O)c3ccccc3)[C@]3(O)C[C@H](OC(=O)[C@H](O)[C@@H](NC(=O)c4ccc(Cl)cc4)c4ccc(F)cc4)C(C)=C1C3(C)C)[C@]1(OC(C)=O)CO[C@@H]1C[C@@H]2O` [Example 18, N-debenzoyl-N-(4-chlorobenzoyl)-3'-desphenyl-3'-(4-fluorophenyl) taxol], for which the “Tubulin Assay Init. Peak” value was 109 and the “Tubulin Assay Rel. Rate” value came out at 92.
The matching figures for `COc1ccc(C(=O)N[C@@H](c2ccc(F)cc2)[C@@H](O)C(=O)O[C@H]2C[C@@]3(O)[C@@H](OC(=O)c4ccccc4)[C@@H]4[C@]5(OC(C)=O)CO[C@@H]5C[C@H](O)[C@@]4(C)C(=O)[C@H](OC(C)=O)C(=C2C)C3(C)C)cc1` [Example 28, N-debenzoyl-N-(4-methoxybenzoyl)-3'-desphenyl-3'-(4-fluorophenyl) taxol]: 106 and 97.
The matching figures for `CC(=O)O[C@H]1C(=O)[C@@]2(C)[C@H]([C@H](OC(=O)c3ccccc3)[C@]3(O)C[C@H](OC(=O)[C@H](O)[C@@H](NC(=O)c4ccc(C)cc4)c4ccc(F)cc4)C(C)=C1C3(C)C)[C@]1(OC(C)=O)CO[C@@H]1C[C@@H]2O` [Example 20, N-debenzoyl-N-(4-methylbenzoyl)-3'-desphenyl-3'-(4-fluorophenyl) taxol]: 85 and 98.
The matching figures for `CC(=O)O[C@H]1C(=O)[C@@]2(C)[C@H]([C@H](OC(=O)c3ccccc3)[C@]3(O)C[C@H](OC(=O)[C@H](O)[C@@H](NC(=O)c4ccc(Cl)cc4)c4ccccc4)C(C)=C1C3(C)C)[C@]1(OC(C)=O)CO[C@@H]1C[C@@H]2O` [Example 10, N-debenzoyl-N-(4-chlorobenzoyl) taxol]: 75 and 90.
For the compound `COc1ccc(C(=O)N[C@@H](c2ccc(OC)cc2)[C@@H](O)C(=O)O[C@H]2C[C@@]3(O)[C@@H](OC(=O)c4ccccc4)[C@@H]4[C@]5(OC(C)=O)CO[C@@H]5C[C@H](O)[C@@]4(C)C(=O)[C@H](OC(C)=O)C(=C2C)C3(C)C)cc1` [Example 32, N-debenzoyl-N-(4-methoxybenzoyl)-3'-desphenyl-3'-(4-methoxyphenyl) taxol], the “Tubulin Assay Init. Peak” value turned out to be 51 and the “Tubulin Assay Rel. Rate” value worked out at 81.
Regarding `CC(=O)O[C@H]1C(=O)[C@@]2(C)[C@H]([C@H](OC(=O)c3ccccc3)[C@]3(O)C[C@H](OC(=O)[C@H](O)[C@@H](NC(=O)c4ccccc4)c4ccc5ccccc5c4)C(C)=C1C3(C)C)[C@]1(OC(C)=O)CO[C@@H]1C[C@@H]2O` [Example 2, 3'-desphenyl-3'-(2-naphthyl) taxol], the “Tubulin Assay Init. Peak” value amounted to 0 and the “Tubulin Assay Rel. Rate” value stood at 0.
As to `COc1ccc([C@H](NC(=O)c2ccc(C(C)(C)C)cc2)[C@@H](O)C(=O)O[C@H]2C[C@@]3(O)[C@@H](OC(=O)c4ccccc4)[C@@H]4[C@]5(OC(C)=O)CO[C@@H]5C[C@H](O)[C@@]4(C)C(=O)[C@H](OC(C)=O)C(=C2C)C3(C)C)cc1` [Example 31, N-debenzoyl-N-(4-t-butylbenzoyl)-3'-desphenyl-3'-(4-methoxyphenyl) taxol], the “Tubulin Assay Init. Peak” value is 24 and the “Tubulin Assay Rel. Rate” value is 44.
The matching figures for `CC(=O)O[C@H]1C(=O)[C@@]2(C)[C@H]([C@H](OC(=O)c3ccccc3)[C@]3(O)C[C@H](OC(=O)[C@H](O)[C@@H](NC(=O)c4ccc(C)cc4)c4ccccc4)C(C)=C1C3(C)C)[C@]1(OC(C)=O)CO[C@@H]1C[C@@H]2O` [Example 12, N-debenzoyl-N-(4-methylbenzoyl) taxol]: 107 and 110.
Regarding `CC(=O)O[C@H]1C(=O)[C@@]2(C)[C@H]([C@H](OC(=O)c3ccccc3)[C@]3(O)C[C@H](OC(=O)[C@H](O)[C@@H](NC(=O)c4ccc(C(C)(C)C)cc4)c4ccccc4)C(C)=C1C3(C)C)[C@]1(OC(C)=O)CO[C@@H]1C[C@@H]2O` [Example 13, N-debenzoyl-N-(4-t-butylbenzoyl) taxol], the “Tubulin Assay Init. Peak” value is recorded as 67 and the “Tubulin Assay Rel. Rate” value is 85.

Values taken from patent publication US5250683A, “Certain substituted taxanes and pharmaceutical compositions containing them” (Florida State University, priority 1992, dated 1993).
